From publication PMC5802807, “Heme interaction of the intrinsically disordered N-terminal peptide segment of human cystathionine-β-synthase” (Scientific Reports, 2018) come the findings set out here.

For the assay, the target named is T1, GB1CBS(1–40) (Homo sapiens, UniProt P35520).
T1 construct: gene CBS; His6 tag cut with thrombin; E. coli BL21(DE3); full-length CBS 551 residues
T1 sequence (P35520 1-40): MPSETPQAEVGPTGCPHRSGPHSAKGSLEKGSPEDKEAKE
Description: UV/Vis titration, Soret band at […] nm. It counts as binding.

Consider `C=CC1=C(C)C2=Cc3c(C=C)c(C)c4[n]3[Fe]([Cl])[n]3c(c(C)c(CCC(=O)O)c3=CC3=NC(=C4)C(C)=C3CCC(=O)O)=CC1=N2` [hemin], for which the Kd – broadly, the constant that tells how readily two partners part at equilibrium – came out at 2.18 ± 0.64 µM.
